Data as given in ChEMBL document CHEMBL1909046, “DrugMatrix in vitro pharmacology data”.
*1 amine or outer side, *2 acyl side, *3 side chain or, on linkers, in order; H or OH if unused. Where a SMILES comes first, the peptide text is derived from it. Bridges are numbered along the chain shown (N, C = ends). Roman numbers before positions name the chains, in order. [ ]: non-standard residue; d: D form. Actinocin(1to9) = Cc1c2oc3c(C)ccc(C(=O)[*:2])c3nc-2c(C(=O)[*:1])c(N)c1=O; NMeV = CN[C@H](C(=O)O)C(C)C; Sar = CNCC(=O)O

How the values were obtained:
Mu-type opioid receptor = Mu-type opioid receptor (Homo sapiens, UniProt P35372); test: DRUGMATRIX: Opiate mu (OP3, MOP) radioligand binding (ligand: [3H] Diprenorphine); assay type: cell membranes, CHO-K1, Membrane; settings: cho-k1; Not Active = under 50% inhibition at 10 µM
Mu-type opioid receptor, sequence (P35372 whole entry): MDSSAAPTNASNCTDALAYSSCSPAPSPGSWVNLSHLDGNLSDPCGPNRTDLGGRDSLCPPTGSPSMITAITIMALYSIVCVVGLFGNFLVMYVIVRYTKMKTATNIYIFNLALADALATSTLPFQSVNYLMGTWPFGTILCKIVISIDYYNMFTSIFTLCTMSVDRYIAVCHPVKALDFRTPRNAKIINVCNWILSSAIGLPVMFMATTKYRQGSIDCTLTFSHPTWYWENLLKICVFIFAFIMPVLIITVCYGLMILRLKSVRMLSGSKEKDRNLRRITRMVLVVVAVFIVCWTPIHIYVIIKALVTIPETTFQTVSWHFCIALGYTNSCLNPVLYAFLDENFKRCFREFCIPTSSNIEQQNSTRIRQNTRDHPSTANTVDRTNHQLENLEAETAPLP

[1] = molecular target: T1, 5-hydroxytryptamine receptor 2C (Homo sapiens, UniProt P28335); test: DRUGMATRIX: Serotonin (5-Hydroxytryptamine) 5-HT2C radioligand binding (ligand: [3H] Mesulergine); assay type: cell membranes, CHO-K1, Membrane; settings: cho-k1; Not Active = under 50% inhibition at 10 µM
T1 sequence (P28335 whole entry): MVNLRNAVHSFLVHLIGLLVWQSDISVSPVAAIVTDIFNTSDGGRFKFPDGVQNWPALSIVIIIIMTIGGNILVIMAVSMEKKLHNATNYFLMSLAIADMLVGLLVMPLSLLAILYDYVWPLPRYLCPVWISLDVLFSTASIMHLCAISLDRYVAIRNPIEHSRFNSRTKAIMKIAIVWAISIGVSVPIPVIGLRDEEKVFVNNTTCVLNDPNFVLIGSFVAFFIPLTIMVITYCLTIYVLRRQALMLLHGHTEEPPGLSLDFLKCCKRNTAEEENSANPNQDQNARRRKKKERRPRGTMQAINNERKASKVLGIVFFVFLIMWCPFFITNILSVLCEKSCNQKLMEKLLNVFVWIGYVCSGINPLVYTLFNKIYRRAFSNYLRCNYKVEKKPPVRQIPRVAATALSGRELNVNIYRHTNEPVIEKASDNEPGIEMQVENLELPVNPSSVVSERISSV

[2] = DRUGMATRIX: Serotonin (5-Hydroxytryptamine) 5-HT3 radioligand binding (ligand: [3H] GR-65630); assay type: cell membranes, Membrane; settings: hek293; Not Active = under 50% inhibition at 10 µM
[3] = DRUGMATRIX: Phorbol Ester radioligand binding (ligand: [3H] PDBu); assay type: cell membranes, Mus musculus, ICR, Brain, Membrane; settings: Not Active = under 50% inhibition at 10 µM
[4] = DRUGMATRIX: Leukotriene, BLT (LTB4) radioligand binding (ligand: [3H]LTB4); assay type: cell membranes, Membrane; settings: u-937; Not Active = under 50% inhibition at 10 µM
Insulin receptor = Insulin receptor (Rattus norvegicus, UniProt P15127); assay type: cell membranes, Wistar, Liver, Membrane; note: in other assays of this panel Not Active means under 50% inhibition at 10 µM
Insulin receptor, sequence (P15127 27-759 limits assumed): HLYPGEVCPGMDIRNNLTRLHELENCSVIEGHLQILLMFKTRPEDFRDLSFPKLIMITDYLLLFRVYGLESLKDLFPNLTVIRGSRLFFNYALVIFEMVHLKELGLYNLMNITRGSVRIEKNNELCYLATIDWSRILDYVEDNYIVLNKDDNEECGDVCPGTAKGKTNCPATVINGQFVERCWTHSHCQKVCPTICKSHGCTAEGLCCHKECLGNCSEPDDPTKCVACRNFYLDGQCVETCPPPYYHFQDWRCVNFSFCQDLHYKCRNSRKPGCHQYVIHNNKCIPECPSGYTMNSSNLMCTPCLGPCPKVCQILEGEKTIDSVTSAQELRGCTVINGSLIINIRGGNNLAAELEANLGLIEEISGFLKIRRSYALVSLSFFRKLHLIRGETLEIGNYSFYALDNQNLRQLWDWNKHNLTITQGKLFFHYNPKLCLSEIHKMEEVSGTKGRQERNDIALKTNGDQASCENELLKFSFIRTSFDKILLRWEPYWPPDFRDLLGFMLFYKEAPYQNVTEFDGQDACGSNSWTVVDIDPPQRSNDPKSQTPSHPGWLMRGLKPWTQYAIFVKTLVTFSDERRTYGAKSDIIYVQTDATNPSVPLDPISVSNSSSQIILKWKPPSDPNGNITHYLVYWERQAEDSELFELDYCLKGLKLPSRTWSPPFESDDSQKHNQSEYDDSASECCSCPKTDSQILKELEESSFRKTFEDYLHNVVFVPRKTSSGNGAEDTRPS
Insulin receptor, sequence (P15127 764-1383 limits assumed): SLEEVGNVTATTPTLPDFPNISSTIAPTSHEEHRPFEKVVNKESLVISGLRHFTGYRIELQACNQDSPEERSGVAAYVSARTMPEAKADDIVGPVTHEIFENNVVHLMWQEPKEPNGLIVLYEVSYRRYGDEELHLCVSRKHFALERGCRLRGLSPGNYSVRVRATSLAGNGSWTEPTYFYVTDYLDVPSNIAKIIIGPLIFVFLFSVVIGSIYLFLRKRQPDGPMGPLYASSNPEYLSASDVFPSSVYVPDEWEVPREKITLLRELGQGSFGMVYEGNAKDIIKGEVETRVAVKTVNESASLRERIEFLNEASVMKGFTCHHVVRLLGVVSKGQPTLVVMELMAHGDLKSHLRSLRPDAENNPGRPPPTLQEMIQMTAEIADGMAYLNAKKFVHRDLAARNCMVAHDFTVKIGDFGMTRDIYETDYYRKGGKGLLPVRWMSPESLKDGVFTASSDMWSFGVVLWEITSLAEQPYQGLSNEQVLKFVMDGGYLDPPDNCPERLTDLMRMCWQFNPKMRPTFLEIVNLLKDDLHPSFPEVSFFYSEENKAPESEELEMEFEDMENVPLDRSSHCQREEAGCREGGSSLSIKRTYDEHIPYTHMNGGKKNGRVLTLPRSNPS

CNCCc1ccccn1 [BETAHISTINE]
Not Active: IC50 (Mu-type opioid receptor) | IC50 [1] | IC50 [2] | Ki [2] | IC50 [3] | Ki [3] | IC50 [4] | Ki [4] | IC50 (Insulin receptor)

CC(C)C(Br)C(=O)NC(N)=O (stereo unspecified) [BROMISOVALUM]
Not Active: IC50 (Mu-type opioid receptor) | IC50 [1] | IC50 [2] | Ki [2] | IC50 [3] | Ki [3] | IC50 [4] | Ki [4] | IC50 (Insulin receptor)

CCCC1O[C@@H]2C[C@H]3[C@@H]4CCC5=CC(=O)C=C[C@]5(C)[C@H]4[C@@H](O)C[C@]3(C)[C@]2(C(=O)CO)O1 (stereo partly specified) [BUDESONIDE]
Not Active: IC50 (Mu-type opioid receptor) | IC50 [1] | IC50 [2] | Ki [2] | IC50 [3] | Ki [3] | IC50 [4] | Ki [4] | IC50 (Insulin receptor)

CC(NC(C)(C)C)C(=O)c1cccc(Cl)c1 (stereo unspecified) [BUPROPION]
Not Active: IC50 (Mu-type opioid receptor) | IC50 [1] | IC50 [2] | Ki [2] | IC50 [3] | Ki [3] | IC50 [4] | Ki [4] | IC50 (Insulin receptor)

CN(Cc1ccc(C(C)(C)C)cc1)Cc1cccc2ccccc12 [BUTENAFINE]
Not Active: IC50 (Mu-type opioid receptor) | IC50 [1] | IC50 [2] | Ki [2] | IC50 [3] | Ki [3] | IC50 [4] | Ki [4] | IC50 (Insulin receptor)

C[C@H](CS)C(=O)N1CCC[C@H]1C(=O)O [CAPTOPRIL]
Not Active: IC50 (Mu-type opioid receptor) | IC50 [1] | IC50 [2] | Ki [2] | IC50 [3] | Ki [3] | IC50 [4] | Ki [4] | IC50 (Insulin receptor)

Cc1ccc(-c2cc(C(F)(F)F)nn2-c2ccc(S(N)(=O)=O)cc2)cc1 [CELECOXIB]
Not Active: IC50 (Mu-type opioid receptor) | IC50 [1] | IC50 [2] | Ki [2] | IC50 [3] | Ki [3] | IC50 [4] | Ki [4] | IC50 (Insulin receptor)

C[C@H](CCC(=O)O)[C@H]1CC[C@H]2[C@@H]3[C@H](O)C[C@@H]4C[C@H](O)CC[C@]4(C)[C@H]3C[C@H](O)[C@]12C [CHOLIC ACID]
Not Active: IC50 (Mu-type opioid receptor) | IC50 [1] | IC50 [2] | Ki [2] | IC50 [3] | Ki [3] | IC50 [4] | Ki [4] | IC50 (Insulin receptor)

Cc1cc(C2CCCCC2)n(O)c(=O)c1 [CICLOPIROX]
Not Active: IC50 (Mu-type opioid receptor) | IC50 [1] | IC50 [2] | Ki [2] | IC50 [3] | Ki [3] | IC50 [4] | Ki [4] | IC50 (Insulin receptor)

CC(C)(Oc1ccc(Cl)cc1)C(=O)O [CLOFIBRIC ACID]
Not Active: IC50 (Mu-type opioid receptor) | IC50 [1] | IC50 [2] | Ki [2] | IC50 [3] | Ki [3] | IC50 [4] | Ki [4] | IC50 (Insulin receptor)

Clc1cccc(Cl)c1NC1=NCCN1 [CLONIDINE]
Not Active: IC50 (Mu-type opioid receptor) | IC50 [1] | IC50 [2] | Ki [2] | IC50 [3] | Ki [3] | IC50 [4] | Ki [4] | IC50 (Insulin receptor)

Cc1cc(C(C#N)c2ccc(Cl)cc2)c(Cl)cc1NC(=O)c1cc(I)cc(I)c1O (stereo unspecified) [CLOSANTEL]
Not Active: IC50 (Mu-type opioid receptor) | IC50 [1] | IC50 [2] | Ki [2] | IC50 [3] | Ki [3] | IC50 [4] | Ki [4] | IC50 (Insulin receptor)

Cc1onc(-c2ccccc2Cl)c1C(=O)N[C@@H]1C(=O)N2[C@@H]1SC(C)(C)[C@@H]2C(=O)O [CLOXACILLIN]
Not Active: IC50 (Mu-type opioid receptor) | IC50 [1] | IC50 [2] | Ki [2] | IC50 [3] | Ki [3] | IC50 [4] | Ki [4] | IC50 (Insulin receptor)

CC1CC(OC(=O)C(O)c2ccccc2)CC(C)(C)C1 (stereo unspecified) [CYCLANDELATE]
Not Active: IC50 (Mu-type opioid receptor) | IC50 [1] | IC50 [2] | Ki [2] | IC50 [3] | Ki [3] | IC50 [4] | Ki [4] | IC50 (Insulin receptor)

Cc1c2oc3c(C)ccc(C(=O)N[C@@H]4C(=O)N[C@H](C(C)C)C(=O)N5CCC[C@H]5C(=O)N(C)CC(=O)N(C)[C@@H](C(C)C)C(=O)O[C@@H]4C)c3nc-2c(C(=O)N[C@@H]2C(=O)N[C@H](C(C)C)C(=O)N3CCC[C@H]3C(=O)N(C)CC(=O)N(C)[C@@H](C(C)C)C(=O)O[C@@H]2C)c(N)c1=O [DACTINOMYCIN] (I: T[dV]P[Sar][NMeV] / II: T[dV]P[Sar][NMeV]; ester I:1-I:C, II:1-II:C; linker I:N-II:N via Actinocin(1to9))
Not Active: IC50 (Mu-type opioid receptor) | IC50 [1] | IC50 [2] | Ki [2] | IC50 [3] | Ki [3] | IC50 [4] | Ki [4] | IC50 (Insulin receptor)

Cc1c(O)c(=O)ccn1C [DEFERIPRONE]
Not Active: IC50 (Mu-type opioid receptor) | IC50 [1] | IC50 [2] | Ki [2] | IC50 [3] | Ki [3] | IC50 [4] | Ki [4] | IC50 (Insulin receptor)

CNCCCN1c2ccccc2CCc2ccccc21 [DESIPRAMINE]
Not Active: IC50 (Mu-type opioid receptor) | IC50 [1] | IC50 [2] | Ki [2] | IC50 [3] | Ki [3] | IC50 [4] | Ki [4] | IC50 (Insulin receptor)

O=c1oc2ccccc2c(O)c1Cc1c(O)c2ccccc2oc1=O [DICUMAROL]
Not Active: IC50 (Mu-type opioid receptor) | IC50 [1] | IC50 [2] | Ki [2] | IC50 [3] | Ki [3] | IC50 [4] | Ki [4] | IC50 (Insulin receptor)

C[C@H]1O[C@@H](O[C@H]2[C@@H](O)C[C@H](O[C@H]3[C@@H](O)C[C@H](O[C@H]4CC[C@@]5(C)[C@H](CC[C@@H]6[C@@H]5C[C@@H](O)[C@]5(C)[C@@H](C7=CC(=O)OC7)CC[C@]65O)C4)O[C@@H]3C)O[C@@H]2C)C[C@H](O)[C@@H]1O [DIGOXIN]
Not Active: IC50 (Mu-type opioid receptor) | IC50 [1] | IC50 [2] | Ki [2] | IC50 [3] | Ki [3] | IC50 [4] | Ki [4] | IC50 (Insulin receptor)
